Assay results reported in patent publication US4218477A, “Primary aminoacylanilides, methods of making the same and use as antiarrhythmic drugs” (priority 1976, dated 1980).
Like-named read-outs stand apart in the source and are kept apart here.

Experiments:
ventricular fibrillation [1] = experiment: Protection against chloroform induced ventricular fibrillation in mice, oral (Table I); type: in vivo, female Swiss albino mice (HAM/ICR)
Experimental: (§1) The experiments on mice were performed according to a modification of the method described by J. W. Lawson, "Antiarrhythmic activity of some isoquinoline derivatives determined by a rapid screening procedure in the mouse", J. Pharm. Exp. Therap. Vol. 160, pp. 22-31 (1968). This method is based upon the observation that when an unanesthetized, untreated mouse is exposed to chloroform vapor its respiration soon ceases and at that time both electrocardiographic and visual inspection reveal that the cardiac ventricles are fibrillating. If the mouse is treated appropriately with known antiarrhythmic agents prior to exposure to chloroform, the respiratory failure is not accompanied by ventricular fibrillation.

mice [2] = experiment: Ataxia just before CHCl3 challenge in mice, oral (Table I); type: in vivo, female Swiss albino mice (HAM/ICR)
Experimental: as §1

ventricular arrhythmias [3] = experiment: animal or person
Experimental: Tests on dogs with the compound 2-amino-2',6'-propionoxylidide were conducted according to a modification of the method described by A. S. Harris in "Delayed Development of Ventricular Ectopic Rhythms Following Experimental Coronary Occlusions", Circ. Vol. 1, pp. 1318-1328 (1950). In this method the dogs were anesthetized, the heart was exposed, and the anterior descending branch of the left coronary artery was ligated in two stages. The thorax was closed and the dog was allowed to recover from the anesthesia. […] B. B. Clark and J. R. Cummings, "Arrhythmias Following Experimental Coronary Occlusion and Their Response to Drugs", Annals New York Academy of Sciences, Vol. 65, pp. 543-551 (1956). […] The electrocardiographic, cardiovascular and other drug effects were monitored.
The dosage schedule was: 1st hr.: 15 mg/kg/hr; 2nd hr.: 30 mg/kg/hr; 3rd hr.: 60 mg/kg/hr. Infusions were stopped at the first sign of toxicity other than emesis.
The compound 3-amino-2',6'-butyroxylidide was also tested on dogs, according to a modification of the method of Harris as previously described. As in the previously described tests, unanesthetized dogs were supported in canvas slings and were treated either intravenously or orally with doses of 3-amino-2',6'-butyroxylidide. The electrocardiographic, cardiovascular and other drug effects were monitored.

frog sciatic nerve = experiment: Local anesthetic effect in vitro on the frog sciatic nerve; conditions: 5 min; 20 mM, after 5 minutes; read-out: block of the action potential of the nerve
[4] = cited from earlier work
mice [5] = experiment: Acute oral toxicity in mice (24 Hr. mortality); conditions: oral, mice, 24 hr; dose to kill one of a thousand
mice [6] = conditions: mouse, in vivo, po, 1440 min
cardiac arrhythmias = conditions: in vivo; cited from earlier work
[7] = Acute oral toxicity in mice (24 Hr. mortality); conditions: mouse, in vivo, po
[8] = tested on: chloroform induced fibrillation; experiment: Protection against chloroform induced fibrillation in mice, subcutaneous, potency relative to lidocaine (Table IV); type: in vivo; conditions: s.c., 20 min, statistical mean (confidence limits)
Experimental: as §1
The procedure used was a modification of the method previously described. The modification involved using a standard time of 20 minutes for each test run and four different doses of the same drug. Route of administration was subcutaneous.

[9] = tested on: chloroform-induced arrhythmias; conditions: mouse, in vivo
[10] = tested on: chloroform-induced arrhythmias; experiment: animal or person; conditions: Mus musculus
pKa = type: physicochemical; conditions: 23; read-out: pkaa^23
ventricular arrhythmias [11] = type: in vivo, dogs
Experimental: Vol. 1, pp. 1318-1328 (1950). […] The electrocardiographic, cardiovascular and other drug effects were monitored.
Table II summarizes the results of oral administration:
Dogs #215 and #220 given 50 mg/kg dose at 0 mins and 100 mg/kg dose at 24
The electrocardiographic, cardiovascular and other drug effects were monitored.

ventricular fibrillation [12] = experiment: Protection against chloroform induced fibrillation in the guinea pig, intraperitoneal (Table V); type: in vivo; conditions: 326 mg/kg i.p., 20 min before chloroform
Experimental: Guinea pigs (250-350 g) were placed individually into a series of 4000 ml beakers containing cotton and 100 ml of chloroform. After cessation of respiration the animal was removed from the beaker, the thorax was opened and the heart was examined for the presence or absence of ventricular fibrillation. The nature of the cardiac rhythm was confirmed by electrocardiographic recordings.
A single dose (about 1-5 ml) of each test compound was administered intraperitoneally by a 25 gauge needle twenty minutes before the animals were placed in chloroform.

[13] = dose LD0.1, drug given 10 min before CHCl3 challenge
[14] = dose LD0.1, drug given 20 min before CHCl3 challenge
[15] = dose LD0.1, drug given 40 min before CHCl3 challenge
[16] = dose LD0.1, drug given 80 min before CHCl3 challenge

Structure (SMILES): CCN(CC)CC(=O)Nc1c(C)cccc1C [Lidocaine, 2-diethylamino-2',6'-acetoxylidide]
- Proportion of mice protected against fibrillation at LD0.1 (ventricular fibrillation [1]; [13]): 9/10
- Proportion of mice protected against fibrillation at LD0.1 (ventricular fibrillation [1]; [14]): 10/10
- Proportion of mice protected against fibrillation at LD0.1 (ventricular fibrillation [1]; [15]): 7/10
- Proportion of mice protected against fibrillation at LD0.1 (ventricular fibrillation [1]; [16]): 0/10
- Proportion of mice having ataxia just before CHCl3 challenge (mice [2]; dose LD0.1, 10 min): 0/10
- Proportion of mice having ataxia just before CHCl3 challenge (mice [2]; dose LD0.1, 20 min): 9/10
- Proportion of mice having ataxia just before CHCl3 challenge (mice [2]; dose LD0.1, 40 min): 0/10
- Proportion of mice having ataxia just before CHCl3 challenge (mice [2]; dose LD0.1, 80 min): 0/10
- Number of dogs showing antiarrhythmic effect (ventricular arrhythmias [3]; i.v. infusion 15, 30, 60 mg/kg/hr, dogs tested: lidocaine 2, test compound 1, abnormal beats less than 5% of total): 2
- inhibition at 20000 µM (frog sciatic nerve): 78%
- duration of blood levels ([4]; in vivo): fairly short
- levels of the drug in the blood ([4]; oral): low levels of the drug in the blood
- oral effectiveness ([4]; oral): not orally effective
- loss of the drug after oral administration ([4]; oral, probably due to functions of the liver): pronounced loss of the drug
- 24 Hr. Mortality LD0.1 (mice [5]): 154 mg/kg

Structure (SMILES): CCN(CC)CCNC(=O)c1ccc(N)cc1 [Procainamide]
- Proportion of mice protected against fibrillation at LD0.1 (ventricular fibrillation [1]; dose LD0.1, drug given 5 min before CHCl3 challenge): 0/10
- Proportion of mice protected against fibrillation at LD0.1 (ventricular fibrillation [1]; [13]): 1/10
- Proportion of mice protected against fibrillation at LD0.1 (ventricular fibrillation [1]; [14]): 0/10
- Proportion of mice having ataxia just before CHCl3 challenge (mice [2]; dose LD0.1, 5 min): 0/10
- Proportion of mice having ataxia just before CHCl3 challenge (mice [2]; dose LD0.1, 10 min): 0/10
- Proportion of mice having ataxia just before CHCl3 challenge (mice [2]; dose LD0.1, 20 min): 0/10
- 24 Hr. Mortality LD0.1 (mice [6]): 248 mg/kg
- side effects (cardiac arrhythmias): exhibit undesirable side effects
- LD50 at 24 h [7]: 643 mg/kg

Structure (SMILES): Cc1cccc(C)c1NC(=O)[C@H](C)N [(+)-2-amino-2',6'-propionoxylidide]
- Relative Potency (ED50 test compound/ED50 lidocaine) [8]: 0.11 (0.06 - 0.21)

Structure (SMILES): CCc1cccc(CC)c1NC(=O)CN [2-amino-2', 6'-diethylacetanilide, 2-amino-2',6'-diethylacetanilide]
- Relative Potency (ED50 test compound/ED50 lidocaine) [8]: 0.22 (0.13 - 0.36)

Structure (SMILES): CCc1cccc(C)c1NC(=O)CCN [3-amino-2'-ethyl-6'-methylpropionanilide]
- Relative Potency (ED50 test compound/ED50 lidocaine) [8]: 0.29 (0.09 - 0.81)

Structure (SMILES): O=C1NC(=O)C(c2ccccc2)(c2ccccc2)N1 [diphenylhydantoin]
- side effects (cardiac arrhythmias): exhibit undesirable side effects

Structure (SMILES): CC(C)NCC(O)COc1cccc2ccccc12 (centres unmarked) [propranolol]
- side effects (cardiac arrhythmias): exhibit undesirable side effects

Structure (SMILES): CCNC(C)C(=O)Nc1c(C)cc(C)cc1C (centres unmarked)
- incidence of ataxia [9]: 100%
- incidence of convulsions [9]: 90%
- ED50 [10]: 162 mg/kg

Structure (SMILES): Cc1cc(C)c(NC(=O)CCN)c(C)c1 [3-amino-2', 4', 6'-propionomesidide, 3-amino-2',4',6'-propionomesidide]
- pKa (pKa): 8.7 to 8.8

Structure (SMILES): Cc1cccc(C)c1NC(=O)[C@@H](C)N [2-amino-2',6'-propionoxylidide]
- Relative Potency (ED50 test compound/ED50 lidocaine) [8]: 0.45 (0.26 - 0.78)

Structure (SMILES): Cc1cccc(C)c1NC(=O)CCN [3-amino-2', 6'-propionoxylidide, 3-amino-2',6'-propionoxylidide]
- Relative Potency (ED50 test compound/ED50 lidocaine) [8]: 0.4 (0.2 - 0.8)

Structure (SMILES): CCc1cccc(CC)c1NC(=O)C(C)N (centres unmarked) [2-amino-2', 6'-diethylpropionanilide, 2-amino-2',6'-diethylpropionanilide]
- Relative Potency (ED50 test compound/ED50 lidocaine) [8]: 0.48 (0.27 -0.73)

Structure (SMILES): Cc1cccc(C)c1NC(=O)CC(C)N (centres unmarked) [3-amino-2',6'-butyroxylidide]
- adverse reactions (ventricular arrhythmias [11]; dog, in vivo, po): unaccompanied by any discernible adverse reactions
- suppression of the ventricular arrhythmias (ventricular arrhythmias [11]; oral doses, dogs): distinct suppression of the ventricular arrhythmias
- adverse reactions (ventricular arrhythmias [3]; dog, in vivo, iv): unaccompanied by any discernible adverse reactions
- suppression of the ventricular arrhythmias (ventricular arrhythmias [3]; intravenous doses, dogs): distinct suppression of the ventricular arrhythmias
- toxic side-effects (ventricular arrhythmias [3]; intravenous, antiarrhythmic doses, dogs (Table VI)): minimal toxic side-effects
- Toxicity: Convulsions (ventricular arrhythmias [3]; intravenous, individual dogs): None
- Toxicity: Deaths (ventricular arrhythmias [3]; intravenous, individual dogs): None
- Relative Potency (ED50 test compound/ED50 lidocaine) [8]: 0.99 (0.60 - 1.9)
- Percent of Population Protected (ventricular fibrillation [12]): 100%

Structure (SMILES): C=C[C@H]1C[N@@]2CC[C@H]1C[C@@H]2[C@@H](O)c1ccnc2ccc(OC)cc12 [Quinidine]
- Proportion of mice protected against fibrillation at LD0.1 (ventricular fibrillation [1]; [14]): 10/10
- Proportion of mice protected against fibrillation at LD0.1 (ventricular fibrillation [1]; [15]): 9/9
- Proportion of mice protected against fibrillation at LD0.1 (ventricular fibrillation [1]; [16]): 9/9
- Proportion of mice having ataxia just before CHCl3 challenge (mice [2]; dose LD0.1, 20 min): 0/10
- Proportion of mice having ataxia just before CHCl3 challenge (mice [2]; dose LD0.1, 40 min): 2/10
- death (mice [2]; dose LD0.1, 40 min group): 1 death
- death (mice [2]; dose LD0.1, 80 min group): 1 death
- side effects (cardiac arrhythmias): exhibit undesirable side effects
- LD50 at 24 h [7]: 382 mg/kg
- 24 Hr. Mortality LD0.1 (mice [5]): 348 mg/kg

Structure (SMILES): CCc1cccc(C)c1NC(=O)CN [2-amino-2'-ethyl-6'-methyl acetanilide, 2-amino-2'-ethyl-6'-methylacetanilide]
- Relative Potency (ED50 test compound/ED50 lidocaine) [8]: 0.27 (0.14 - 0.40)
